The record followed here is patent publication US20110212954A1, “ALPHA-LIPOIC ACID DERIVATIVES AND THEIR USE IN DRUG PREPARATION” (priority 2008, published 2011).

The subject of data set [1] is protein pool extracted from murine liver. Put plainly: In vitro enzyme hydrolysis assay, thin-layer chromatography detection. It is filed as in vitro ADME, mouse. The conditions noted are these: 1 mg murine liver protein extract, 50 μg compound, 25° C. Here is the method: In view of what found from the results of Example 29, an in vitro enzyme hydrolysis assay was carried out with the aim of further clarifying which of the synthesized derivatives behaved as alpha-lipoic acid precursors, i.e. as prodrugs able to release alpha-lipoic acid by hydrolysis.
A protein pool extracted from murine liver, containing enzymes able to promote hydrolysis of the compounds of the invention, was used to reintroduce in vitro the hydrolytic activity previously described in the pharmacokinetic studies.
Methodology • The liver of a wild-type mouse was removed; excess blood was removed by washing in phosphate buffer saline (PBS); • Said liver was transferred into a homogenizer with a sufficient amount of lysis buffer (50 mM Tris HCl pH 7.5-8.0; 150 mM NaCl; 5 mM EGTA pH 7.5-8.0; 50 mM NaF pH 8.0; 10% (v/v) glycerol; 1.5 mM MgCl2, 1% Triton X-100) enriched with protease and phosphatase inhibitors (Protease Inhibitor Cocktail; Sigma-Aldrich). 15-20 impacts were applied by the pestle in order to obtain a homogeneous solution; • The entire mixture was left under agitation at +4° C. for 1 hour; after centrifugation at 14000 rpm, the supernatant containing the extracted proteins was recovered; • The amount of extracted protein was determined using the Bradford assay; • The enzymatic hydrolysis reaction was carried out: 1 mg of protein extract for hydrolysing 50 μg of synthesized compound (dissolved in DMSO); 1, 3 or 24 hours at 25° C. under agitation; • The digestion product(s) was/were detected using thin-layer chromatography: mobile phase (60:40:1 of ethyl acetate; n-hexane; acetic acid); silica plate (Sigma-Aldrich); phosphomolybdic reagent; • The digestion products were analyzed and compared with (R)-α-LA (Sigma-Aldrich), and with the non-hydrolysed compound of the invention.
It was, therefore, possible to detect (R)-alpha-lipoic acid as the hydrolysis product and to differentiate it from the enantiomers of the invention.

The nature of data set [2]: Pharmacokinetic study in rats after oral administration of a single dose, HPLC-MS of plasma. The data set is classed as in vivo. To be noted: rat. Here is the method:
The bioavailability of some compounds synthesized (Examples 1a, 2, 2a, 3, 3a, 10, 15a, 16a and 24) was studied in rats after oral administration of a single dose (48.5 μmol/kg) and compared with the reference (R)- or (RS)-α-LA.
Each treatment was carried out on groups of 6 male rats (Sprague-Dawley SD rat) per compound. At regular times, blood withdrawals were carried out for the measurement by HPLC-MS of the concentration of plasmatic α-LA (FIGS. 5, 7, 9) and of the residual compound administered (FIGS. 6, 8).

For `O=C(CCCC[C@@H]1CCSS1)N1CCOCC1` [Example 1, (R)-1-morpholin-4-yl-5-[1,2]dithiolan-3-yl-pentan-1-one], in data set [1], the “enzymatic hydrolysis after 24 h (FIG. 3)” value is “remained essentially unaltered”.
Consider `COc1ccc(CNC(=O)CCCC[C@@H]2CCSS2)cc1O` [Example 23, (R)-5-[1,2]dithiolan-3-yl-pentanoic acid N-(3-hydroxy-4methoxybenzyl)amide], for which, in data set [1], the “amount of (R)-alpha-lipoic acid released after 24 h (FIG. 3)” value (“amount of (R)-alpha-lipoic acid released” for short) was “very considerable amount” and the “enzymatic hydrolysis after 24 h (FIG. 3)” value is “not completely hydrolysed”.
Regarding `C=CCCNC(=O)CCCC[C@@H]1CCSS1` [Example 25, (R)-5-[1,2]dithiolan-3-yl-pentanoic acid N-(buten-3-yl)amide], in data set [1], the “amount of (R)-alpha-lipoic acid released” value was “very considerable amount” and the “enzymatic hydrolysis after 24 h (FIG. 3)” value is listed as “not completely hydrolysed”.
Regarding `CCCC(=O)OCOC(=O)CCCC[C@@H]1CCSS1` [Example 16, (R)-5-[1,2]dithiolan-3-yl-pentanoic acid butyryloxymethyl ester], the “enzymatic hydrolysis after 1 h (FIG. 2)” value in data set [1] is reported as “completely hydrolyzed”.
As for `CCCCNC(=O)CCCC[C@@H]1CCSS1` [Example 2, (R)-5-[1,2]dithiolan-3-yl-pentanoic acid butylamide], in data set [1], the “amount of (R)-alpha-lipoic acid released” value is “very considerable amount” and the “enzymatic hydrolysis after 24 h (FIG. 3)” value was “not completely hydrolysed”. In addition, the “concentration of alpha-lipoic acid in plasma after 30 minutes from administration (FIG. 9)” value in data set [2] (shorter treatment intervals (5-30 minutes)) is “significant concentration”. The “hydrolysis profile in vivo compared with the corresponding racemic compound (FIG. 7 vs FIG. 5)” value in data set [2] (single dose 48.5 μmol/kg) is listed as “more linear hydrolysis profile”.
For the molecule `O=C(CCCC[C@@H]1CCSS1)NCCCCc1ccccc1` [Example 13, (R)-5-[1,2]dithiolan-3-yl-pentanoic acid(4-phenyl-butyl)-amide], in data set [1], the “amount of (R)-alpha-lipoic acid released” value is recorded as “reduced release” and the “enzymatic hydrolysis after 24 h (FIG. 3)” value is recorded as “partial hydrolization”.
Regarding `CC(=O)OC(C)OC(=O)CCCC[C@@H]1CCSS1` (stereo partly drawn) [Example 17, (R)-5-[1,2]dithiolan-3-yl-pentanoic acid 1-acetoxy-ethyl ester], in data set [1], the “enzymatic hydrolysis after 1 h (FIG. 2)” value is on record as “partial hydrolization” and the “enzymatic hydrolysis after 3 h (FIG. 2)” value is “completely hydrolyzed”.
Take `O=C(CCCC[C@@H]1CCSS1)NCCc1ccccc1` [Example 11, (R)-5-[1,2]dithiolan-3-yl-pentanoic acid phenethyl-amide]: in data set [1], the “amount of (R)-alpha-lipoic acid released” value is reported as “reduced release” and the “enzymatic hydrolysis after 24 h (FIG. 3)” value is listed as “partial hydrolization”.
For `O=C(CCCC[C@@H]1CCSS1)NCCCc1ccccc1` [Example 12, (R)-5-[1,2]dithiolan-3-yl-pentanoic acid(3-phenyl-propyl)-amide] the same measures were “reduced release” and “partial hydrolization”.
For `CCCCCNC(=O)CCCC[C@@H]1CCSS1` [Example 19, (R)-5-[1,2]dithiolan-3-yl-pentanoic acid n-pentylamide] the same measures were “reduced release” and “partial hydrolization”.
`CCCNC(=O)CCCC[C@@H]1CCSS1` [Example 7, (R)-5-[1,2]dithiolan-3-yl-pentanoic acid propylamide]: in data set [1], the “amount of (R)-alpha-lipoic acid released” value is “reduced release” and the “enzymatic hydrolysis after 24 h (FIG. 3)” value was “partial hydrolization”.
For the molecule `O=C(CCCC[C@@H]1CCSS1)NCC1CC1` [Example 24, (R)-5-[1,2]dithiolan-3-yl-pentanoic acid N-(cyclopropylmethyl)amide], in data set [1], the “amount of (R)-alpha-lipoic acid released” value is given as “very considerable amount” and the “enzymatic hydrolysis after 24 h (FIG. 3)” value is reported as “not completely hydrolysed”.
For `CNC(=O)CCCC[C@@H]1CCSS1` [Example 6, (R)-5-[1,2]dithiolan-3-yl-pentanoic acid methylamide] the same measures were “reduced release” and “partial hydrolization”.
Consider `CC(OC(=O)CCCC[C@@H]1CCSS1)OC(=O)C(C)(C)C` (stereo partly drawn) [Example 18, (R)-5-[1,2]dithiolan-3-yl-pentanoic acid 2,2-dimethyl-propionyloxyethyl ester], for which, in data set [1], the “enzymatic hydrolysis after 1 h (FIG. 2)” value is on record as “partial hydrolization” and the “enzymatic hydrolysis after 3 h (FIG. 2)” value was “completely hydrolyzed”.
Take `CC(C)(C)C(=O)OCOC(=O)CCCC[C@@H]1CCSS1` [Example 15, (R)-5-[1,2]dithiolan-3-yl-pentanoic acid 2,2-dimethyl-propionyloxymethyl ester]: the “enzymatic hydrolysis after 1 h (FIG. 2)” value in data set [1] is “completely hydrolyzed”.
Regarding `COc1ccc(CNC(=O)CCCC[C@@H]2CCSS2)cc1OC(C)=O` [Example 27, (R)-5-[1,2]dithiolan-3-yl-pentanoic acid N-(3-acetoxy-4methoxybenzyl)amide], in data set [1], the “amount of (R)-alpha-lipoic acid released” value is given as “very considerable amount” and the “enzymatic hydrolysis after 24 h (FIG. 3)” value is listed as “not completely hydrolysed”.
Turning to `CCC(CC)NC(=O)CCCC[C@@H]1CCSS1` [Example 21, (R)-5-[1,2]dithiolan-3-yl-pentanoic acid pentan-3-ylamide], in data set [1], the “enzymatic hydrolysis after 24 h (FIG. 3)” value was “remained essentially unaltered”.
With `O=C(CCCC[C@@H]1CCSS1)NC1CCCC1` [Example 14, (R)-5-[1,2]dithiolan-3-yl-pentanoic acid cyclopentylamide], in data set [1], the “amount of (R)-alpha-lipoic acid released” value is on record as “reduced release” and the “enzymatic hydrolysis after 24 h (FIG. 3)” value was “partial hydrolization”.
As to `CC1CCN(C(=O)CCCC[C@@H]2CCSS2)CC1` [Example 28, (R)-5-[1,2]dithiolan-3-yl-pentanoic acid 1-(4-methylpiperidin-1-yl)amide], in data set [1], the “enzymatic hydrolysis after 24 h (FIG. 3)” value is given as “remained essentially unaltered”.
Turning to `O=C(CCCC[C@@H]1CCSS1)NCc1ccccc1` [Example 22, (R)-5-[1,2]dithiolan-3-yl-pentanoic acid N-benzylamide], in data set [1], the “amount of (R)-alpha-lipoic acid released” value is recorded as “very considerable amount” and the “enzymatic hydrolysis after 24 h (FIG. 3)” value is reported as “not completely hydrolysed”.
For `CCCC(C)NC(=O)CCCC[C@@H]1CCSS1` (stereo partly drawn) [Example 5, (R)-5-[1,2]dithiolan-3-yl-pentanoic acid(1-methyl-butyl)-amide], the “enzymatic hydrolysis after 24 h (FIG. 3)” value in data set [1] is “remained essentially unaltered”.
On to `O=C(CCCC[C@@H]1CCSS1)NCCCN1CCOCC1` [Example 3, (R)-5-[1,2]dithiolan-3-yl-pentanoic acid(3-morpholin-4-yl-propyl)-amide], for which, in data set [2] (single dose 48.5 μmol/kg), the “released alpha-lipoic acid and compound itself in plasma, any withdrawal time” value is listed as “neither released alpha-lipoic acid nor the compound itself was detected”.
With `CCCCCCCNC(=O)CCCC[C@@H]1CCSS1` [Example 20, (R)-5-[1,2]dithiolan-3-yl-pentanoic acid n-heptylamide], the “enzymatic hydrolysis after 24 h (FIG. 3)” value in data set [1] was “remained essentially unaltered”.
